Where “and” joins values, the source holds several entries; their conditions need not be identical. Equal entries are not always repeated.
Legend:
[1] = test system: VSV-SARS-CoV-2-S pseudovirus; assay: microbe, parasite or virus in culture; assay type: cell-based; details: for EC50: read-out: EC50
lysosomal compartment = assay: LysoTracker staining of VeroTA6 cells
Description: (A) VeroTA6 cells were seeded
post treatment, the cells were stained with lysotracker (Thermofisher, L7528) and visualized under
the microscope (left). The fluorescence intensity was captured and quantified for each treatment
B), the significance was calculated using one-way ANOVA with Dunnett’s test with multiple
comparison to the DMSO control, and the P values are depicted as ns for P>0.05, ** for P <0.01,

HEK293A2T2 cells = details: initial screening
Huh7 cells = details: initial screening
SARS-CoV-2 = assay type: cell-based
SARS-CoV-2-nLUC = assay: microbe, parasite or virus in culture; assay type: cell-based; details: VeroE6; 15 μM GGTI; 24 h

SMILES | Max % [1] | EC50 [1] | CC50 (Huh7 cells) | further results
CN1[C@@H]2CC[C@H]1CC(O[C@@H](c1ccccc1)c1ccc(Cl)cc1)C2 (stereo partly shown) [NCGC00015195] | 100.0% | 3.1 µM | – | –
CC(CN1c2ccccc2Sc2cccnc21)N(C)C (stereo not shown) [NCGC00181101] | – | > 30 µM | – | –
CN(C)CCCN1c2ccccc2Sc2ccc(Cl)cc21 [NCGC00015273] | – | > 30 µM | – | –
OC(CCCN1CCCCC1)(c1ccccc1)c1ccccc1 [NCGC00016624] | 57.9% | 12.8 µM | – | –
CN(C)CC[C@H](c1ccc(Cl)cc1)c1ccccn1 [NCGC00015227] | – | > 30 µM | – | –
CN1CCC(OC(c2ccccc2)c2ccccc2)CC1 [NCGC00016395] | 51.1% | 5.2 µM | – | –
COc1ccc(CCN2CCC(Nc3nc4ccccc4n3Cc3ccc(F)cc3)CC2)cc1 [NCGC00016913] | 79.3% | 8.4 µM | – | –
CCN(CC)CCCC(C)Nc1ccnc2cc(Cl)ccc12 (stereo not shown) [CQ, Chloroquine] | – | – | – | LysoTracker fluorescence intensity (lysosomal compartment; VeroTA6, 10 μM, 30 min): significant reduction in fluorescence intensity; Lysotracker (lysosomal compartment; sheet S5A, individual measurements): 560.723 and 174.035 and 160.899 and 432.593 and 438.73 and 246.495 and 247.855 and 602.458 and 376.298 and 321.5 and 378.198 and 326.501 and 374.374 and 217.144 and 290.704 and 270.841 and 377.374 and 275.759 and 524.267 and 701.544 and 422.374
c1ccc2c(c1)Sc1ccccc1N2CC1CN2CCC1CC2 (stereo not shown) [NCGC00183046] | – | – | 26.3 µM | CC50 (HEK293A2T2 cells): > 30 µM
Clc1ccc(C(c2ccc(Cl)cc2)N2CCNCC2)cc1 [NCGC00354584] | 100.0% | 2 µM | – | –
CN(C)C(=O)COC(=O)Cc1ccc(OC(=O)c2ccc(NC(=N)N)cc2)cc1 [camostat] | – | – | – | time-of-addition result (SARS-CoV-2): only E64d, and not camostat, was effective in blocking the entry step
Cc1nc[nH]c1CN1CCN(C(=O)N[C@@H](CC(C)C)C(=O)O)[C@@H](Cc2ccccc2)C1=O [GGTI2418] | – | – | – | effect on viral replication (SARS-CoV-2-nLUC): no effect on viral replication
CN1CCN(C(c2ccc(Cl)cc2)c2ccc(Cl)cc2)CC1 [NCGC00351413] | 67.9% | 2.6 µM | 12.9 µM | –
CN(C)CCN(Cc1cccs1)c1ccccn1 [NCGC00015704] | – | > 30 µM | – | –
CN1CCCC(n2nc(Cc3ccc(Cl)cc3)c3ccccc3c2=O)CC1 (stereo not shown) [NCGC00177979] | 96.4% | 4.3 µM | – | –
Clc1ccc(C(c2ccccc2)N2CCNCC2)cc1 (stereo not shown) [NCGC00345880] | 99.6% and 75.2% | – | 13.4 µM | CC50 (HEK293A2T2 cells): > 30 µM
C(=C/c1ccccc1)/CN1CCN(C(c2ccccc2)c2ccccc2)CC1 [NCGC00015246] | 65.8% | > 30 µM | 22 µM | –
CN1CCCN([C@@H](c2ccccc2)c2ccc(Cl)cc2)CC1 [NCGC00018271] | – | – | > 30 µM | CC50 (HEK293A2T2 cells): > 30 µM
CN(C)CCOC(c1ccccc1)c1ccccc1 [NCGC00015335] | 17.9% | – | – | –
CCN1CCN(C(c2ccc(Cl)cc2)c2ccc(Cl)cc2)CC1 [NCGC00351414] | 83.6% | – | > 30 µM | CC50 (HEK293A2T2 cells): > 30 µM
CC(C)N1CCN([C@@H](c2ccccc2)c2ccc(Cl)cc2)CC1 [NCGC00347044] | 90.9% | 3.6 µM | – | –
NC1=NCC2c3ccccc3Cc3ccccc3N12 (stereo not shown) [NCGC00165791] | – | > 100 µM | – | –
CCN1CCN(C2c3ccccc3-c3ccc(Br)cc32)CC1 (stereo not shown) [NCGC00351673] | 77.7% | 28.1 µM | > 30 µM | –
O=C(CCCN1CCN(c2ccc(F)cc2)CC1)NC1c2ccccc2CSc2ccccc21 (stereo not shown) [NCGC00183837] | – | > 30 µM | – | –

SMILES | Max % [1] | EC50 [1] | CC50 (Huh7 cells) | further results
CCc1ccc2c(c1)N(CC(C)CN(C)C)c1ccccc1S2.Cl (stereo not shown) [NCGC00014485] | 90.9% | 2.8 µM | – | –
C[C@@H]1CN(C2CCC(C#N)(c3ccc(F)cc3)CC2)CC[C@]1(C(=O)O)c1ccccc1.Cl (stereo partly shown) [NCGC00016939] | 37.9% | > 30 µM | – | –
CN1CCC(N(c2ccccc2)c2ccc(OC(C)(C)C)cc2)CC1 [NCGC00346851] | 68.3% | 14.9 µM | > 30 µM | –
Clc1ccc(Cn2c(CN3CCCC3)nc3ccccc32)cc1 [NCGC00015243] | – | > 30 µM | – | –
C[C@@H](CN1c2ccccc2Sc2ccccc21)N(C)C [NCGC00015817] | 87.0% | 4.5 µM | – | –
CC(CN(C)C)CN1c2ccccc2S(=O)(=O)c2ccccc21 (stereo not shown) [NCGC00182075] | – | > 30 µM | – | –
OC(c1ccccc1)(c1ccccc1)C1CN2CCC1CC2 (stereo not shown) [NCGC00160492] | – | > 30 µM | – | –
CN1CCC(=C2c3ccccc3C=Cc3ccccc32)CC1 [NCGC00015252] | 52.7% | 12.3 µM | – | –
CN(c1nccc(=O)[nH]1)C1CCN(c2nc3ccccc3n2Cc2ccc(F)cc2)CC1 [NCGC00181013] | – | > 30 µM | – | –
CN(C)CCN(Cc1ccc(Cl)cc1)c1ccccn1 [NCGC00016672] | 77.6% | 11.1 µM | – | –
CC(=O)N1CCN([C@@H](c2ccccc2)c2ccc(Cl)cc2)CC1 [NCGC00347049] | – | > 100 µM | > 30 µM | –
OCCOCCN1CCN([C@@H](c2ccccc2)c2ccc(Cl)cc2)CC1 [NCGC00018255] | 26.3% | > 100 µM | > 30 µM | –
CN1CCN(C(c2ccccc2)c2ccccc2)CC1 [NCGC00016421] | 58.1% | 25.2 µM | > 30 µM | –
CCOC(=O)N1CCC(=C2c3ccc(Cl)cc3CCc3cccnc32)CC1 [NCGC00015619] | – | > 30 µM | – | –
CN1CCN([C@H](c2ccccc2)c2ccc(Cl)cc2)CC1 [NCGC00343774] | 66.4% | – | 14.4 µM | CC50 (HEK293A2T2 cells): > 30 µM
COc1ccc(CN(CCN(C)C)c2ncccn2)cc1 [NCGC00178145] | – | > 30 µM | – | –
Clc1ccc(C(c2ccccc2)N2CCNCC2)cc1 (stereo not shown) [NCGC00345879] | 100.0% | 3 µM | 28 µM | –
COc1ccc(CN2CCN([C@@H](c3ccccc3)c3ccc(Cl)cc3)CC2)c(OC)c1 [NCGC00346845] | 64.2% | 22.5 µM | 24.6 µM | –
Clc1ccc(C(c2ccc(Cl)cc2)N2CCOCC2)cc1 [NCGC00354586] | – | > 100 µM | > 30 µM | –
Clc1ccc([C@H](c2ccccc2)N2CCN(C3CCCCC3)CC2)cc1 [NCGC00347039] | 70.8% | 4 µM | 14.1 µM | –
CN1CCC(=C2c3ccccc3CC(=O)c3sccc32)CC1 [NCGC00015580] | – | > 30 µM | – | –
CN(C)CC/C=C1/c2ccccc2COc2ccc(CC(=O)O)cc21 [NCGC00263532] | – | > 30 µM | – | –
CC(C)(C)c1ccc(C(=O)CCCN2CCC(OC(c3ccccc3)c3ccccc3)CC2)cc1 [NCGC00164603] | – | > 30 µM | – | –
CN(C)CCOC(c1ccc(Cl)cc1)c1ccccn1 (stereo not shown) [NCGC00166141] | 35.5% | 26.3 µM | – | –

SMILES | Max % [1] | EC50 [1] | CC50 (Huh7 cells) | further results
Clc1ccc(C(c2ccccc2)N2CCNCC2)cc1 (stereo not shown) [NCGC00245963] | 99.5% | – | > 30 µM | CC50 (HEK293A2T2 cells): > 30 µM
CN1CCC(=C2c3ccccc3CCc3cccnc32)CC1 [NCGC00182705] | 45.5% | > 30 µM | – | –
CN1CCC(CN2c3ccccc3Sc3ccccc32)C1 (stereo not shown) [NCGC00014482] | – | – | > 30 µM | CC50 (HEK293A2T2 cells): > 30 µM
FC(F)(F)CN1CCN([C@@H](c2ccccc2)c2ccc(Cl)cc2)CC1 [NCGC00351281] | 21.1% | > 100 µM | > 30 µM | –
c1ccc2c(c1)Sc1ccccc1N2C[C@H]1CN2CCC1CC2 [NCGC00014679] | 100.0% | 1.5 µM | – | –
COc1ccc(CN(CCN(C)C)c2ccccn2)cc1 [NCGC00015822] | 49.2% | > 30 µM | – | –
CN1CCN([C@@H](c2ccccc2)c2ccc(Cl)cc2)CC1 [NCGC00343775] | 77.3% | – | 11.2 µM | CC50 (HEK293A2T2 cells): > 30 µM
CN1CCC(N(c2ccccc2)c2ccccc2)CC1 [NCGC00351675] | 17.1% | > 100 µM | > 30 µM | –
CN(C)CC[C@@H](c1ccc(Br)cc1)c1ccccn1 [NCGC00162100] | 59.8% | 23.3 µM | – | –
c1ccc(CN(CC2=NCCN2)c2ccccc2)cc1 [NCGC00016613] | – | > 30 µM | – | –
Cl.Cl.O=C(O)COCCN1CCN(C(c2ccccc2)c2ccc(Cl)cc2)CC1 (stereo not shown) [NCGC00016949] | 29.7% | > 30 µM | > 30 µM | –
C[C@@H]1O[C@@]2(CS1)CN1CCC2CC1 [NCGC00485995] | – | 17.9 µM | – | –
CN(C)CCCN1c2ccccc2Sc2ccccc21 [NCGC00015829] | – | – | 18.4 µM | CC50 (HEK293A2T2 cells): > 30 µM
Cc1cccn2c(=O)c(-c3nnn[n-]3)cnc12.[K+] [NCGC00167434] | 24.2% | > 30 µM | – | –
CN1CCC(N(Cc2cccs2)c2ccccc2)CC1 [NCGC00183847] | 64.0% and 54.6% | 11.4 µM and 18.4 µM | > 30 µM | CC50 (HEK293A2T2 cells): > 30 µM
CC(C)(C(=O)O)c1ccc([C@@H](O)CCCN2CCC(C(O)(c3ccccc3)c3ccccc3)CC2)cc1 [NCGC00015453] | – | > 30 µM | – | –
Cc1ccccc1[C@@H](OCCN(C)C)c1ccccc1 [NCGC00015771] | 25.1% | > 30 µM | – | –
CN1CCC[C@@H]1CCO[C@](C)(c1ccccc1)c1ccc(Cl)cc1 [NCGC00016710] | – | – | > 30 µM | CC50 (HEK293A2T2 cells): > 30 µM
Cc1ccc(C(=CCN2CCCC2)c2cccc(C=CC(=O)O)n2)cc1 [NCGC00182053] | – | > 30 µM | – | –
Cc1ccc(/C(=C/CN2CCCC2)c2ccccn2)cc1 [NCGC00024714] | – | > 30 µM | – | –
CN1CCN(C(c2ccccc2)c2ccc(Cl)cc2)CC1 (stereo not shown) [NCGC00179384] | – | – | – | CC50 (HEK293A2T2 cells): > 30 µM
CC(C)c1ccc2oc3nc(N)c(C(=O)O)cc3c(=O)c2c1 [NCGC00167472] | 59.8% | – | – | –
Cc1cccc(CN2CCN([C@@H](c3ccccc3)c3ccc(Cl)cc3)CC2)c1 [NCGC00018296] | 54.8% | > 30 µM | – | –
